Data taken from patent US11059795B2, “Androgen receptor modulators and methods for their use” (ESSA Pharma, Inc., priority 2018, dated 2021).

What was measured:
[1] = In vivo pharmacokinetics in plasma after oral gavage (PO) in male CD-1 mice; details: for bioavailability / AUC(0-t) / Cmax / Tmax / half-life: mouse; for half-life: read-out: t½ (converted); for Cmin at 5 mg/kg PO: Table 4
Procedure: The purpose of this study is to determine the pharmacokinetics of the tested compounds in plasma, following oral gavage administration (PO) to male CD-1 mice.
Animal Husbandry: Animals were group housed during acclimation and the study. The animal room environment were controlled (target conditions: temperature 18 to 26° C., relative humidity 30 to 70%, 12 hours artificial light and 12 hours dark). Temperature and relative humidity were monitored daily. Animals were fasted at least 12 hours prior to the administration. All animals had access to Certified Rodent Diet ad libitum 4 hours post dosing.
Dose Formulation: prepared 85-100 uL of a stock solution of representative compounds of the disclosure in DMSO at 50 mM; 1.5% v/v of Tween 80 were added and mixed gently; 95.5% v/v saline was added gently to the organic phase. The solution was mixed slowly by reverse pipetting to get a clear solution.
Dose Administration: the dose formulations were administered via oral gavage per facility SOPs. The dose volume were determined by the animals' body weight collected on the morning of dosing day
Sample Collection: blood collection (about 0.05 mL per time point) was performed from saphenous vein of each animal into polypropylene tubes at each timepoints (0, 0.25, 0.5, 1, 2, 4, 8, 12, and 24 hr). All blood samples were transferred into pre-chilled tubes containing 2 μL of K2-EDTA (0.5M) and placed on wet ice until centrifugation. Each collected blood sample was in the wet-ice before centrifugation. Each collected blood was under centrifugation for 15 minutes at 4° C. and 3000 g for plasma collection. Plasma samples were stored in polypropylene tubes, quickly frozen over dry ice and kept at −70±10° C. until LC/MS/MS analysis.
Bioanalytical analysis: A LC-MS/MS method for the quantitative determination of tested compound in biological matrix were developed under non-GLP compliance. A calibration curve with at least 7 non-zero calibration standards were applied for the method including LLOQ.
Plasma concentration versus time data were analyzed by non-compartmental approaches using the Phoenix WinNonlin 6.3 software program. Cl, Vdss, C0, Cmax, Tmax, T^1/2, AUC(0-t), AUC(0-inf), MRT(0-t), MRT(0-inf), % F (oral availability) and graphs of plasma concentration versus time profile were reported.

[2] = Microsomal stability assay, monkey liver microsomes; assay type: in vitro ADME; details: pH 7.4, read-out: Liver microsome T½ (min) Monkey
Procedure: Microsomal stability assay is a widely used in vitro model to characterize the metabolic conversion by phase I enzymes, such as cytochrome P450 (CYP) enzymes. Since metabolism is known to be highly variable in different species, microsomal stability assay is commonly run in multiple species. Metabolic stability of testing compound can be evaluated using human, rat, mouse, or other animal liver or intestine microsomes to predict intrinsic clearance.
The assay was carried out in 96-well microtiter plates at 37° C. Reaction mixtures (25 μL) contained a final concentration of 1 μM test compound, 0.5 mg/mL liver microsomes protein, and 1 mM NADPH and/or 1 mM UDPGA (with alamethicin) in 100 mM potassium phosphate, pH 7.4 buffer with 3 mM MgCl2. The incubation was done with N=1, but duplicate incubation at each time point can be prepared if necessary. At each of the time points (for example, 0, 15, 30, and 60 minutes), 150 μL of quench solution (100% acetonitrile with 0.1% formic acid) with internal standard was transferred to each well. Besides the zero minute controls, mixtures containing the same components except the NADPH can also be prepared as the negative control. Verapamil was included as a positive control to verify assay performance. Plates were sealed, vortexed, and centrifuged at 4° C. for 15 minutes at 4000 rpm. The supernatant is transferred to fresh plates for LC/MS/MS analysis.
Summarized conditions: [Compound]=[…], [LM]=0.5 mg/mL, [NADPH]=1 mM and/or [UDPGA]=1 mM, Buffer=100 mM Potassium Phosphate, pH 7.4 with 3 mM MgCl2, Time=0, 15, 30, and 60 min, and Temperature=37° C.
All samples were analyzed on LC/MS/MS using an AB Sciex API 4000 instrument, coupled to a Shimadzu LC-20AD LC Pump system. Analytical samples were separated using a Waters Atlantis T3 dC18 reverse phase HPLC column (20 mm×2.1 mm) at a flow rate of 0.5 mL/min. The mobile phase consisted of 0.1% formic acid in water (solvent A) and 0.1% formic acid in 100% acetonitrile (solvent B).
The extent of metabolism is calculated as the disappearance of the test compound, compared to the 0-min time incubation. Initial rates are calculated for the compound concentration and used to determine half-life (t½) values and subsequently, the intrinsic clearance (Clint). Clint=(0.693)(1/t½ (min))(g of liver/kg of body weight)(mL incubation/mg of microsomal protein)(45 mg of microsomal protein/g of liver weight)

LNCaP tumors = test: LNCaP xenografts model in castrated male NCG mice; assay type: in vivo; details: Table 4; extrapolated Cmin in efficacy
Procedure: Tumor growth was measured in male NCG mice bearing LNCaP tumors. Castration was performed when tumors reached ˜100 mm^3 and dosing (60 mg/kg PO qd) started 1 week after castration. […] Individual tumor volume change from baseline measured at the end of the experiment.

LNCaP cells = test: Cell proliferation/viability assay, LNCaP (Alamar blue); assay type: cell-based; details: Homo sapiens, AR specific proliferation with 0.1 nM R1881, read-out: Cellular Proliferation/Viability IC50 (μM) LNCaP
Procedure: (§1) Cell proliferation/viability was measured in LNCaP and PC3 cells with Alamar blue, and proliferation was measured in LN-CaP95 cells with BrdU incorporation. In LNCaP cells, AR specific proliferation is calculated by measuring the difference between control cells treated with or without 0.1 nM R1881.

LN-CaP95 cells = test: Cell proliferation assay, LNCaP95 (BrdU incorporation); assay type: cell-based; details: LNCaP-95, read-out: Cellular Proliferation/Viability IC50 (μM) LNCaP95
Procedure: as §1

PC3 cells = test: Cell proliferation/viability assay, PC3 (Alamar blue); assay type: cell-based; details: Homo sapiens; PC-3, Alamar blue; read-out: Cellular Proliferation/Viability IC50 (μM) PC-3
Procedure: as §1

[3] = plasma, single PO dose 5 mg/kg, male CD-1 mice, oral availability
[4] = single PO dose 5 mg/kg, male CD-1 mice, plasma

Row | bioavailability [1, 3] [%] | AUC(0-t) [1, 4] [ng·h/mL] | Cmax [1, 4] [ng/mL] | Tmax [1, 4] [h] | half-life [1, 4] [h] | AUC/D [1, 4] [kg·ng·h/mL/mg] | half-life at 1 μM [2] [min] | Cmin at 5 mg/kg PO (LNCaP tumors) [nM] | IC50 (LNCaP cells) [µM] | Cmin at 5 mg/kg PO [1] [nM] | IC50 (LN-CaP95 cells) [µM] | IC50 (PC3 cells) [µM] | t½ [1, 4] [h] | F (%) ([1]; single PO dose 5 mg/kg, male CD-1 mice, oral availability) | Compound
1 | 86.4 | 12800 | 1270 | 3.3 | 4.9 | 2561.0 | > 120 |  |  |  |  |  |  |  | CC(C)(c1ccc(OCc2coc(NS(C)(=O)=O)n2)cc1)c1cc(Cl)c(OCCCl)c(Cl)c1 [Compound A38, N-(4-((4-(2-(3,5-dichloro-4-(2-chloroethoxy)phenyl)propan-2-yl)phenoxy)methyl)oxazol-2-yl)methanesulfonamide]
2 |  | 72700 | 6310 | 2.7 |  | 14542.3 | > 120 | 29100 | 1.16 | 2420 | 2.65 | > 10 | 12.5 | 71.9 | CC(C)(c1ccc(OCc2ccnc(NS(C)(=O)=O)n2)cc1)c1cc(Cl)c(OCCCl)c(Cl)c1 [Compound A74, N-(4-((4-(2-(3,5-dichloro-4-(2-chloroethoxy)phenyl)propan-2-yl)phenoxy)methyl)pyrimidin-2-yl)methanesulfonamide]
3 | 33.6 | 30700 | 2670 | 2.2 | 8.1 | 6143.0 | > 120 | 8180 | 0.44 | 680 | 3.78 | > 10 |  |  | CC(C)(c1ccc(OCc2ccnc(NS(C)(=O)=O)n2)cc1)c1cc(Cl)c(OCCCl)c(C#N)c1 [Compound A109, N-(4-((4-(2-(3-chloro-4-(2-chloroethoxy)-5-cyanophenyl)propan-2-yl)phenoxy)methyl)pyrimidin-2-yl)methanesulfonamide]
4 | 81 | 76000 | 7050 | 1.3 | 5 | 15209.4 |  |  |  |  |  |  |  |  | CCS(=O)(=O)Nc1nccc(COc2ccc(C(C)(C)c3cc(Cl)c(OCCCl)c(C#N)c3)cc2)n1 [Compound A131]

Further lines, the compound ahead of its results:

Row | Compound | bioavailability [1, 3] [%] | AUC(0-t) [1, 4] [ng·h/mL] | Cmax [1, 4] [ng/mL] | Tmax [1, 4] [h] | half-life [1, 4] [h] | AUC/D [1, 4] [kg·ng·h/mL/mg] | half-life at 1 μM [2] [min] | Cmin at 5 mg/kg PO (LNCaP tumors) [nM] | IC50 (LNCaP cells) [µM] | Cmin at 5 mg/kg PO [1] [nM] | IC50 (LN-CaP95 cells) [µM] | IC50 (PC3 cells) [µM] | t½ [1, 4] [h] | F (%) ([1]; single PO dose 5 mg/kg, male CD-1 mice, oral availability)
5 | C[C@H](Oc1ccc(C(C)(C)c2cc(Cl)c(OCCCl)c(C#N)c2)cc1)c1ccnc(NS(C)(=O)=O)n1 (single isomer, unassigned) [Compound A170] | 150 | 80000 | 8500 | 3 | 3 | 16007.6 |  |  |  |  |  |  |  | 
6 | CC(C)(c1ccc(OCc2ocnc2S(C)(=O)=O)cc1)c1cc(Cl)c(OCCCl)c(Cl)c1 [Compound A13, 5-((4-(2-(3,5-dichloro-4-(2-chloroethoxy)phenyl)propan-2-yl)phenoxy)methyl)-4-(methylsulfonyl)oxazole] | 85.8 | 8310 | 1140 | 1 | 8.3 | 1661.9 | > 120 | 2780 | 0.85 | 230 | 4 | > 10 |  | 
7 | CC(C)(c1ccc(OCc2ocnc2S(C)(=O)=O)cc1)c1cc(Cl)c(OCCCl)c(C#N)c1 [Compound A28, 3-chloro-2-(2-chloroethoxy)-5-(2-(4-((4-(methylsulfonyl)oxazol-5-yl)methoxy)phenyl)propan-2-yl)benzonitrile] | 50.3 | 8430 | 2010 | 0.5 | 2.8 | 1685.1 | 73 |  | 0.68 |  | 6.43 | > 10 |  | 
8 | CC(C)(c1ccc(OCc2ncc(S(C)(=O)=O)s2)cc1)c1cc(Cl)c(OCCCl)c(C#N)c1 [Compound A93, 3-chloro-2-(2-chloroethoxy)-5-(2-(4-((5-(methylsulfonyl)thiazol-2-yl)methoxy)phenyl)propan-2-yl)benzonitrile] | 62.8 | 32900 | 2970 | 0.8 | 17.1 | 6575.7 | 101 |  |  |  |  |  |  | 
9 | Cc1cnc(NS(C)(=O)=O)nc1COc1ccc(C(C)(C)c2cc(Cl)c(OCCCl)c(C#N)c2)cc1 [Compound A122, N-(4-((4-(2-(3-Chloro-4-(2-chloroethoxy)-5-cyanophenyl)propan-2-yl)phenoxy)methyl)-5-methylpyrimidin-2-yl)methanesulfonamide] | 92.4 | 6800 | 4080 | 0.5 | 1.1 | 1360.0 |  |  |  |  |  |  |  | 
10 | CCS(=O)(=O)Nc1nc(COc2ccc(C(C)(C)c3cc(Cl)c(OCCCl)c(C#N)c3)cc2)co1 [Compound A126] | 86 | 24500 | 3110 | 1.3 | 4.7 | 4909.4 |  |  |  |  |  |  |  | 
11 | CC(C)(c1ccc(OCc2nc(S(C)(=O)=O)cs2)cc1)c1cc(Cl)c(OCCCl)c(C#N)c1 [Compound A136, 3-Chloro-2-(2-chloroethoxy)-5-(2-(4-((4-(methylsulfonyl)thiazol-2-yl)methoxy)phenyl)propan-2-yl)benzonitrile] | 14 | 42000 | 3430 | 1.5 | 10.2 | 8407.6 |  |  |  |  |  |  |  | 
12 | CC(C)(c1ccc(OC[C@H](O)CNS(C)(=O)=O)cc1)c1cc(Cl)c(OC[C@H](O)CCl)c(Cl)c1 [X, reference compound] |  |  |  |  |  |  |  |  | 3 |  | 4 | > 10 |  | 
